From patent US8633216B2, “Imidazo[1,5-a]pyridine derivatives, method for preparing same and pharmaceutical compositions containing same” (Sanofi, priority 2005, dated 2014)
Where a name gives a salt, the structure may show the parent alone.

Tested on: level of circulating platelets
Experiment: Effect on thrombopenia induced by carboplatin in the mouse
Format: in vivo
Conditions: 150 mg/kg intraperitoneally, balbC mice, at nadir
Excerpt: Thrombopenia remains a pathology for which few effective treatments exist apart from the transfusion of platelet concentrates and thrombopoietin (Kaushansky, K., New Eng. J. Med., (1998), 339, pp. 746-754).
Anticancer chemotherapy constitutes one of the major causes of thrombopenia. One of the agents of chemotherapy, carboplatin, has been widely used to induce thrombopenia in the mouse and to be able thus to characterize the effect of compounds capable of improving the level of platelets, such as, for example, thrombopoietin (Hokom M. M. et al., Blood, (1995), 86, pp. 4486-4492).
150 mg/kg of carboplatin were administered intraperitoneally to balbC mice having a weight of 20 g. A blood sample is taken periodically by retro-orbital puncture and the level of circulating platelets is determined by a hematology automated machine (MS9™ from Melet-Schloesing Laboratoires, Cergy-Pontoise, France). […]
The compounds according to the invention or their solvent (a blank-control) are administered by the oral route for 5 days, the treatment being begun 7 days before the administration of carboplatin. The experiments are carried out on batches comprising 10-12 mice and the results are expressed as a mean±standard error. […]

| Structure (SMILES) | reduction in the level of circulating platelets |
| --- | --- |
| N.N.O=C([O-])C1(C(=O)[O-])CCC1.[Pt+2] [carboplatin] | 50-60% |

Tested on: not given
Experiment: not given
Conditions: not given

| Structure (SMILES) | melting point [°C] |
| --- | --- |
| COC(=O)c1cccc(-c2nc(C(=O)c3ccc(N)c(OC)c3)n3ccccc23)c1 | 166 |
| COc1cc(C(=O)c2ncc3cc(C(=O)O)ccn23)ccc1[N+](=O)[O-] | > 350 |
| COC(=O)c1ccc2cnc(C(=O)c3ccc([N+](=O)[O-])c(OC)c3)n2c1 | 218 |
| COC(=O)c1ccc2cnc(C(=O)c3ccc(N)c(OC)c3)n2c1 | 179 |
| COc1cc(C(=O)c2nc(C#N)c3ccccn23)ccc1N (as salt: HCl) | 224 |
| COc1cc(C(=O)c2nc(Br)c3ccccn23)ccc1N (as salt: HCl) (hydrate or solvate) | 204 |
| COc1cccc(C(=O)Nc2nc(C(=O)c3ccc(N)c(OC)c3)n3ccccc23)c1 (as salt: HCl) (hydrate or solvate) | 199 |
| COc1cc(C(=O)c2nc(-c3cccc(F)c3)c3ccccn23)ccc1N (as salt: HCl) (hydrate or solvate) | 228 |
| COc1cc(C(=O)c2ncc3cc(C(=O)O)ccn23)ccc1N (as salt: HCl) (hydrate or solvate) | 268 |
| COC(=O)[C@@H](C)NC(=O)c1ccn2c(C(=O)c3ccc(N)c(OC)c3)ncc2c1 (as salt: HCl) (hydrate or solvate) | 192 |
| COc1cc(C(=O)c2ncc3c(C(=O)O)cccn23)ccc1N (as salt: Na) | 259 |
| COc1cc(C(=O)c2ncc3c(C(=O)O)cccn23)ccc1[N+](=O)[O-] (as salt: Na) | 332 |
| COc1cccc(-c2nc(C(=O)c3ccc(N)c(OC)c3)n3ccc(C(=O)O)cc23)c1 (as salt: Na) (hydrate or solvate) | 307 |
| COc1cc(C(=O)c2ncc3cc(OCC(=O)O)ccn23)ccc1N (as salt: Na) (hydrate or solvate) | 302 |
| COc1cc(C(=O)c2ncc3ccc(C(=O)N[C@@H](CO)C(=O)O)cn23)ccc1N (as salt: Na) (hydrate or solvate) | 244 |
